Experimental data as given in patent US11104665B2, “Pyridazines” (Boehringer Ingelheim International GmbH, priority 2018, dated 2021).

Assays:
Human ATX = Human ATX (Homo sapiens (Human), UniProt Q13822); test: Assay A: Biochemical ATX Assay; details: recombinant ATX, 18:1 LPC substrate, 18:1 LPA formation; compounds of the invention
Protocol: 5 nM recombinant ATX (Cayman Chemicals) was supplemented to 50 mM Tris buffer (pH 8.0) containing 3 mM KCl, 1 mM CaCl2, 1 mM MgCl2 0.14 mM NaCl, and 0.1% bovine serum albumin. Test compounds were dissolved in DMSO and tested in the range of 0.1 nM to 10 μM. The enzymatic reaction (22.5 μL) was started by addition of 2.5 μL 10 μM 18:1 LPC (Avanti Lipids, Alabaster, Ala., USA). After 2-h incubation at room temperature, the reaction was stopped by addition of 20 μL water containing 500 nM 20:4 LPA as internal standard and 100 μL 1-butanol for extracting LPA. Subsequently, the plates were centrifuged at 4000 rpm, 4° C., for 2 min. The resultant upper butanol phase was directly used for injection at a RapidFire system (Agilent).
The RapidFire autosampler was coupled to a binary pump (Agilent 1290) and a Triple Quad 6500 (ABSciex, Toronto, Canada). This system was equipped with a 10-μL loop, 5 μL Waters Atlantis HILIC cartridge (Waters, Elstree, UK), 90% acetonitrile containing 10 mM ammonium acetate as eluent A and 40% acetonitrile containing 10 mM ammoniumacetate as eluent B. For details see (Bretschneider et al., SLAS Discovery, 2017). 1 The MS was operated in negative mode with a source temperature of 550° C., curtain gas=35, gas 1=65, and gas 2=80. The following transitions and MS parameters (DP: declustering potential and CE: collision energy) for the respective LPAs were determined: 18:1 LPA at 435.2/152.8, DP=−40, CE=−28 and 20:4 LPA at 457.2/152.8, DP=−100, CE=−27).
The formation of 18:1 LPA was monitored and evaluated as ratio to 20:4 LPA.

ATX in human whole blood = ATX in human whole blood (Homo sapiens (Human), UniProt Q13822); test: Assay B: Whole-Blood ATX Assay; type: biochemical; details: 1 h at 37° C., 18:2 LPA formation, compounds of the invention
Protocol: ATX is a soluble plasma protein, which is active in heparinized whole blood. Its substrate LPC is highly abundant, its concentration being in the μM range. Therefore, a whole blood assay at physiological substrate concentrations is a highly relevant assay, predictive for the efficacy of ATX inhibitors in vivo.
45 μL human whole-blood was supplemented with 5 μL of the test compound, dissolved in phosphate-buffered saline (concentration range 0.12 nM-100 μM). This mixture was incubated for 1 h at 37° C. and stopped by addition of 100 μL 40 mM disodium hydrogen phosphate buffer containing 30 mM citric acid (pH 4) and 1 μM 17:0 LPA (internal standard). LPA was extracted by addition of 500 μL 1-butanol, followed by 10-min centrifugation at 4000 rpm, 4° C. From the resultant organic supernatant, a 200 μL aliquot was transferred into a 96-deep-well plate and transferred to the RapidFire-based MS/MS measurement.
The RapidFire autosampler was coupled to a binary pump (Agilent 1290) and a Triple Quad 6500 (ABSciex, Toronto, Canada). This system was equipped with a 10-μL loop, 5-μL Waters Atlantis HILIC cartridge (Waters, Elstree, UK), 90% acetonitrile containing 10 mM ammonium acetate as eluent A and 40% acetonitrile containing 10 mM ammoniumacetate as eluent B. For details see (Bretschneider et al., SLAS Discovery, 2017, 22, 425-432). The MS was operated in negative mode with a source temperature of 550° C., curtain gas=35, gas 1=65, and gas 2=80. The following transitions and MS parameters (DP: declustering potential and CE: collision energy) for the respective LPAs were determined: 18:2 LPA at 433.2/152.8, DP=−150, CE=−27 and 17:0 LPA at 423.5/152.8, DP=−100.
The formation of 18:2 LPA was monitored and evaluated as ratio to 17:0 LPA.

LPA levels = details: as disclosed in ACS Med. Chem. Lett. 2017, 8, 1252-1257; cited from earlier work
plasma LPA = test: Assay C: In Vivo, plasma LPA reduction after oral dosing; design: species or system rat; details: rats, 5 mg/kg, 8 hours post application
Protocol: LPA reduction in vivo is determined by measuring the plasma concentration of LPA after oral dosage of the compounds of the present invention. LPA is a very strong bioactive lipid, which efficiently activates downstream pathways via the LPA-receptors 1-6 in a concentration dependent manner. The pronounced and sustained blockage of the LPA formation via ATX inhibition is assessed by measuring the extent of LPA reduction 8 hours after compound dosage. A high reduction of plasma LPA at 8 h is therefore highly indicative for efficacy and sustained duration of action in vivo as well as sustained target engagement of the LPA receptors.
The test substance was solubilized in 0.5% natrosol supplemented with 0.015% Tween 80 for oral application to rats at a dose of 5 mg/kg. Blood samples were collected before compound administration and 8 hours post application on ice using EDTA as coagulation agent. Subsequently, plasma was prepared by centrifugation and stored until analysis at −20° C.
LPAs from plasma samples were extracted by using the procedure described by Scherer et al. (Clinical chemistry 2009, 55, 1218-22). 35 μL of heparinized plasma was mixed with 200 μL 40 mM disodium hydrogen phosphate buffer containing 30 mM citric acid (pH 4) and 1 μM 17:0 LPA (internal standard). Subsequently, 500 μL butanol was added and shaken vigorously for 10 min. Samples were centrifuged afterwards at 4000 rpm, 4° C., for 10 min. […]
A Triple Quad 6500 (ABSciex, Toronto, Canada) was equipped with an Agilent 1290 LC system (Agilent, Santa Clara, Calif.) a CTC autosampler and an Atlantis 50×2.1-mm, 3-μm HILIC LC column (Waters, Elstree, UK). […] The following LPA species were monitored (DP: declustering potential and CE: collision energy): 16:0 LPA at 409.2/152.8, DP=−150, CE=−28; 18:0 LPA at 437.3/152.8, DP=−60, CE=−28; 18:1 LPA at 435.2/152.8, DP=−40, CE=−28; 18:2 LPA at 433.2/152.8, DP=−150, CE=−28; 20:4 LPA at 457.2/152.8, DP=−100, CE=−29 and 17:0 LPA at 423.5/152.8, DP=−100, CE=−36. LPA depletion in percent was calculated based on the baseline LPA levels before test compound application. […]

[1] = vs baseline, sum of LPA, compounds of the invention

What does the source list for `CC(=O)N1CCN(c2ccc(CNc3ccc(OCc4cc(Cl)cc(Cl)c4)nn3)cc2)CC1` [Example 1.1, 1-[4-(4-{[6-(3,5-Dichloro-benzyloxy)-pyridazin-3-ylamino]-methyl}-phenyl)-piperazin-1-yl]-ethanone]?
IC50 (Human ATX): 6 nM; IC50 (ATX in human whole blood): 46 nM

For `COc1ccc(COc2ccc(NCc3ccc(C4CCN(C(C)=O)CC4)cc3)nn2)cn1` [Example 2.2], which IC50 (Human ATX) is on record?
The IC50 was 3 nM.

What about the IC50 (ATX in human whole blood) of the same molecule?
Its IC50 is 38 nM.

With `COc1cc(COc2ccc(NCc3ccc(N4CCN(C(C)=O)CC4)cc3)nn2)ccn1` [Example 2.3] as the molecule, how does the IC50 (Human ATX) read?
Its IC50 is 8 nM.

And the IC50 (ATX in human whole blood)?
Its IC50 is 186 nM.

Which IC50 (Human ATX) does the source give for `CC(=O)N1CCN(c2ccc(CNc3ccc(OCc4ccc(OC(F)(F)F)nc4)nn3)cc2)CC1` [Example 1.5] here?
The IC50 was 4 nM.

And the IC50 (ATX in human whole blood)?
The IC50 was 9 nM.

Which IC50 (Human ATX) does the source give for `CC(=O)N1CCN(c2ccc(CNc3ccc(OCc4cc(C#N)cc(OC(F)(F)F)c4)nn3)cc2)CC1` [Example 1.6] here?
Its IC50 is 5 nM.

For `O=C(NC[C@@H]1[C@H]2CN(C(=O)OCc3cc(C(F)(F)F)cc(C(F)(F)F)c3)C[C@@H]12)c1ccc2[nH]nnc2c1`, which “LPA levels in vivo” value (LPA levels) is on record?
Its value is “significantly reduces LPA levels in vivo”.

What does the source list for `COc1ccc(COc2ccc(NCc3ccc(N4CCN(C(C)=O)CC4)cc3)nn2)cn1` [Example 2.1, 1-[4-(4-{[6-(6-Methoxy-pyridin-3-ylmethoxy)-pyridazin-3-ylamino]-methyl}-phenyl)-piperazin-1-yl]-ethanone]?
IC50 (Human ATX): 3 nM; IC50 (ATX in human whole blood): 33 nM; LPA reduction at 8 h (plasma LPA; [1]): 98.3%

Which results are given for `CC(=O)N1CCN(c2ccc(CNc3ccc(OCc4cncc(C#N)c4)nn3)cc2)CC1` [Example 1.2]?
IC50 (Human ATX): 2 nM; IC50 (ATX in human whole blood): 55 nM

Which IC50 (Human ATX) does the source give for `CC(=O)N1CCN(c2ccc(CNc3ccc(OCc4ccccc4)nn3)cc2)CC1` [Example 2.4] here?
Its IC50 is 3 nM.

What about the IC50 (ATX in human whole blood) of the same molecule?
The IC50 was 73 nM.

Which “LPA reduction at 8 h” value (plasma LPA; prior art compounds of WO2014/139882) does the source give for `CCc1nc2c(C)cc(N3CCN(CC(=O)N4CC(O)C4)CC3)cn2c1N(C)c1nc(-c2ccc(F)cc2)c(C#N)s1` [Example 2 in WO2014/139882, reference compound] here?
The value was 58.1%.

For `CC(=O)N1CCN(c2ccc(CNc3ccc(OCc4cccc(C#N)c4)nn3)cc2)CC1` [Example 1.4], which IC50 (Human ATX) is on record?
The IC50 was 4 nM.

And the IC50 (ATX in human whole blood)?
The IC50 was 201 nM.

What about the “LPA reduction at 8 h” value (plasma LPA; [1]) of the same molecule?
The value was 95.7%.

With `CC(=O)N1CCN(c2ccc(CNc3ccc(OCc4ccnc(C#N)c4)nn3)cc2)CC1` [Example 1.3] as the molecule, how does the IC50 (Human ATX) read?
The IC50 was 5 nM.

What about the IC50 (ATX in human whole blood) of the same molecule?
The IC50 was 83 nM.

What does the source list for `CC(=O)N1CCC(c2ccc(CNc3ccc(OCc4ccccc4)nn3)cc2)CC1` [Example 2.5]?
IC50 (Human ATX): 4 nM; IC50 (ATX in human whole blood): 264 nM
